Measured values as given in PMC3411462, “Long-acting κ opioid antagonists nor-BNI, GNTI and JDTic: pharmacokinetics in mice and lipophilicity” (BMC Pharmacology, 2012).
Values joined by “and” are separate entries in the source; they are usually repeats but may differ in a detail not shown here. Equal entries are not always repeated. “Also recorded” adds a separate entry of the source. Where two headings read alike, the source gives them in different places.

Key:
[1] = Brain and plasma concentrations in mice after intraperitoneal administration (LC-MS-MS), non-compartmental analysis; type: in vivo; settings: for [drug],brain (free base equivalent) / [drug],plasma (free base equivalent): listed as nor-BNI.2HCl.H2O; for [drug],brain (free base equivalent) / [drug],plasma (free base equivalent) / AUC(0-inf) / concentration at 0.5 h / concentration at 1 h / concentration at 2 h / concentration at 4 h / concentration at 24 h / CL/F / Vd/F: 10 mg/kg; for AUC(0-inf) / Kp uu / Kp / MRT inf / concentration at 0.5 h / concentration at 1 h / concentration at 2 h / Tmax / AUC(0-t) / Cmax / k el / half-life / concentration at 4 h / concentration at 24 h / CL/F / Vd/F: male, mouse; for MRT inf: read-out: MRT 0-inf_obs; for k el: read-out: Lambda_z (converted); for half-life: read-out: t1/2 (converted)
[2] = Plasma binding (unbound fraction by ultracentrifugation); type: in vitro ADME; settings: 5 μM drug, mean, n = 3
In short: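 Plasma was spiked with 5 μM drug and ultracentrifuged at 600,000 g for 5 h at 37 °C. The middle water layer and the original spiked matrix were matrix-matched, extracted with acetonitrile and measured by LC-MS-MS. Fraction unbound is the water-layer to spiked-matrix concentration ratio, corrected for dilution.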

[3] = molecular target: T1, P-gp (human MDR1) (Homo sapiens, UniProt P08183); assay: LLC-PK1-MDR1 cell permeation and efflux; type: in vitro ADME; settings: pig (LLC-PK1 cells) transfected with human MDR1, LLC-PK1, 5 μM, 0.1% BSA, 120 min, n = 2
T1 construct: expressed in transfected cells; host or cells: LLC-PK1 (pig kidney epithelial cells) transfected with human MDR1 at Amgen

[4] = molecular target: T2, human P-gp (Homo sapiens, UniProt P08183); assay: LLC-PK1-MDR1 cell permeation and efflux; type: in vitro ADME; settings: cells expressing human P-gp
T2 construct: expressed in transfected cells; host or cells: LLC-PK1 (pig kidney epithelial cells) transfected with human MDR1 at Amgen

[5] = system: mice; assay: Fatalities and behavioral effects after i.p. administration; settings: 100 mg kg^-1
Experimental: Experiments were performed between 10 am and 6 pm. Mice were not used in other experiments, or exposed to other drugs, before testing began.
Doses are reported by weight of the specified salt. Intraperitoneal injections were administered in distilled water vehicle (10 mL kg^-1). Body mass was measured to ±0.1 g. Some values were inadvertently measured on a low-precision balance (± 2.5 g); these timepoints were replicated at ±0.1 g.

[6] = 0.5 h, 10 mg/kg i.p., individual mice
[7] = 1 h, 10 mg/kg i.p., individual mice
[8] = 2 h, 10 mg/kg i.p., individual mice
[9] = Swiss-Webster, ip, brain NCA, 10 mg/kg i.p.
[10] = Swiss-Webster, ip, plasma NCA, 10 mg/kg i.p.
[11] = within 1 hour, 10 mg kg^-1 i.p.
[12] = within 4 hours, 10 mg kg^-1 i.p.

T1 sequence (P08183 whole entry): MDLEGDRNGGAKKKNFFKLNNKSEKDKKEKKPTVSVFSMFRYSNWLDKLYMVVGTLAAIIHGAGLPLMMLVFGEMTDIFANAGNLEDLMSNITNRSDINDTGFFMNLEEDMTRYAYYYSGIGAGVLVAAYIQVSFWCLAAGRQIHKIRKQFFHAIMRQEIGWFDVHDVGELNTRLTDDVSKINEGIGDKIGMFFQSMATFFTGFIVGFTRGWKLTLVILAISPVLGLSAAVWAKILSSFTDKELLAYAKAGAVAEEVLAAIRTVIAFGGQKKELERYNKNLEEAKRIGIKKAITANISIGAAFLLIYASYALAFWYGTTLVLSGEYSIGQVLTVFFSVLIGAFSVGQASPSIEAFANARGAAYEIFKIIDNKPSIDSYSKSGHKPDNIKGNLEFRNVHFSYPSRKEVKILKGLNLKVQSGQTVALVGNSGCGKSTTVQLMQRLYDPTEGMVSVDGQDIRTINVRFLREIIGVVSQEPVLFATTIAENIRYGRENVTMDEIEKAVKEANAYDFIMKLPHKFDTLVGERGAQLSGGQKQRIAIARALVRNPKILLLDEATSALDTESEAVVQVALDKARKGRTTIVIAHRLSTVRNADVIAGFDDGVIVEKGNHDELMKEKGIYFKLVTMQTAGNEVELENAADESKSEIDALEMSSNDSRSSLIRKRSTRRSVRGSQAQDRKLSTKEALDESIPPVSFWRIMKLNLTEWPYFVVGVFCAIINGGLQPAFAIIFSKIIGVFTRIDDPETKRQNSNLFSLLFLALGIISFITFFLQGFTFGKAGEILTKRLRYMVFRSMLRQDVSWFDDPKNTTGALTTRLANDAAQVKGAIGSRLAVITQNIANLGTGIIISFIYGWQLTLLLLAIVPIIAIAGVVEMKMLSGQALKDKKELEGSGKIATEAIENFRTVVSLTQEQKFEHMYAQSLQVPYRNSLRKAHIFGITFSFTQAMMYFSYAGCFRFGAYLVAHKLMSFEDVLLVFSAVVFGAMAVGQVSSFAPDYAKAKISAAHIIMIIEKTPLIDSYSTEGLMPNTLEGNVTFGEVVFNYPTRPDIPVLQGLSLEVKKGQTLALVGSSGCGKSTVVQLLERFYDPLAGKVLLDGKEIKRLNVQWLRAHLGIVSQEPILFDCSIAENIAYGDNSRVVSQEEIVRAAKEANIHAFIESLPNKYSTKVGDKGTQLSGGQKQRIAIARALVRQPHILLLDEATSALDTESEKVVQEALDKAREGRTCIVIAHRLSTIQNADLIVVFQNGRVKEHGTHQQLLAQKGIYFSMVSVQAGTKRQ
T2 sequence (P08183 whole entry): as above

Oc1ccc2c3c1O[C@H]1c4[nH]c5c(c4C[C@@]4(O)[C@@H](C2)N(CC2CC2)CC[C@]314)C[C@@]1(O)[C@H]2Cc3ccc(O)c4c3[C@@]1(CCN2CC1CC1)[C@H]5O4 [nor-BNI, norbinaltorphimine]
Time of maximal mean plasma level ([1]; 10 mg kg^-1 i.p., mice): 30 min | [drug],brain (free base equivalent) [1, 6]: 477 ng/g and 471 ng/g and 309 ng/g and 609 ng/g and 438 ng/g | [drug],plasma (free base equivalent) [1, 6]: 6130 ng/mL and 4810 ng/mL and 2110 ng/mL and 3050 ng/mL | [drug],brain (free base equivalent) [1, 7]: 250 ng/g and 396 ng/g and 299 ng/g and 372 ng/g and 207 ng/g | [drug],plasma (free base equivalent) [1, 7]: 3060 ng/mL and 2060 ng/mL and 1510 ng/mL and 1140 ng/mL and 1170 ng/mL | [drug],brain (free base equivalent) [1, 8]: <120 ng/g | [drug],plasma (free base equivalent) [1, 8]: 343 ng/mL and 309 ng/mL | [drug],plasma (free base equivalent) ([1]; 4 h, 10 mg/kg i.p., individual mice): 173 ng/mL and 156 ng/mL | [drug],plasma (free base equivalent) ([1]; 24 h, 10 mg/kg i.p., individual mice): 63 ng/mL and 50 ng/mL and 14 ng/mL | Peak unbound brain level ([1]; at 30 minutes, 10 mg kg^-1 i.p., estimate): ≤ 26 nM | AUMC 0-inf_obs ([1]; brain NCA, 10 mg/kg i.p.): 712.925 ng/ml*h^2 | Tlag ([1]; brain NCA, 10 mg/kg i.p.): 0 h | C max,brain ([1]; brain, 10 mg kg^-1 i.p., mice): 443 ng/mL | AUC(0-inf) ([1]; Swiss-Webster (Crl:CFW(SW)), brain, ip, brain NCA, 10 mg/kg i.p., read-out: AUC 0-inf_obs): 593 ng·h/mL | Kp uu ([1]; Swiss-Webster (Crl:CFW(SW)), brain/plasma (unbound), ip, supplement, 10 mg/kg i.p., read-out: Kp,uu,brain (AUC0–∞,brain,u / AUC0–∞,p,u)): < 0.00725 | Kp ([1]; Swiss-Webster (Crl:CFW(SW)), brain/plasma, ip, supplement, 10 mg/kg i.p., read-out: Kp,brain (AUC0–∞,brain / AUC0–∞,p)): 0.0924 | MRT inf ([1]; Swiss-Webster (Crl:CFW(SW)), ip, brain NCA, 10 mg/kg i.p.): 72.1 min | Kp uu ([1]; Swiss-Webster, brain and plasma (unbound), ip, 10 mg kg^-1 i.p., mice, read-out: Cmax,brain,u/Cmax,p,u): < 0.009 | Kp uu ([1]; Swiss-Webster, brain and plasma (unbound), ip, 10 mg kg^-1 i.p., mice, read-out: K p,uu,brain (AUC0–∞,brain,u/AUC0–∞,p,u)): < 0.007 | Kp ([1]; Swiss-Webster, brain and plasma, ip, 10 mg kg^-1 i.p., mice, read-out: Cmax,brain/Cmax,p): 0.11 | Kp ([1]; Swiss-Webster, brain and plasma, ip, 10 mg kg^-1 i.p., mice, read-out: K p,brain (AUC0–∞,brain/AUC0–∞,p)): 0.09 | concentration at 0.5 h ([1]; Swiss-Webster, brain, intraperitoneal, 0.5 h, read-out: Conc (brain, NCA input)): 443 ng/mL | concentration at 1 h ([1]; Swiss-Webster, brain, intraperitoneal, 1 h, read-out: Conc (brain, NCA input)): 308 ng/mL | concentration at 2 h ([1]; Swiss-Webster, brain, intraperitoneal, 2 h, read-out: Conc (brain, NCA input)): 96.3 ng/mL | concentration at 0.5 h ([1]; Swiss-Webster, brain, ip, 0.5 h, 10 mg/kg i.p., individual mice, read-out: [drug],brain (free base equivalent)): 354 ng/g | concentration at 0.5 h ([1]; Swiss-Webster, brain, ip, 0.5 h, 10 mg/kg i.p., read-out: mean (brain)): 443 ng/g | concentration at 1 h ([1]; Swiss-Webster, brain, ip, 1 h, 10 mg/kg i.p., individual mice, read-out: [drug],brain (free base equivalent)): 324 ng/g | concentration at 1 h ([1]; Swiss-Webster, brain, ip, 1 h, 10 mg/kg i.p., read-out: mean (brain)): 308 ng/g | concentration at 2 h ([1]; Swiss-Webster, brain, ip, 2 h, 10 mg/kg i.p., individual mice, read-out: [drug],brain (free base equivalent)): 169 ng/g | concentration at 2 h ([1]; Swiss-Webster, brain, ip, 2 h, 10 mg/kg i.p., <MRC substituted by MRC/2, read-out: mean (brain)): 96 ng/g | AUC(0-inf) ([1]; Swiss-Webster, brain, ip, brain, 10 mg kg^-1 i.p., non-compartmental analysis, read-out: AUC 0–∞,brain): 593 ng·h/mL | Tmax ([1]; Swiss-Webster, in vivo, ip, ·2HCl salts, 10 mg kg^-1 i.p., mice): 30 min | AUC(0-t) [1, 9]: 501 ng·h/mL | Tmax [1, 9]: 30 min | Cmax ([1]; Swiss-Webster, ip, brain NCA, 10 mg/kg i.p., read-out: Cmax): 443 ng/mL | k el [1, 9]: 0.000288 s⁻¹ | half-life [1, 9]: 40.1 min | AUC(0-t) [1, 10]: 5910 ng·h/mL | Tmax [1, 10]: 30 min | k el [1, 10]: 2.28e-05 s⁻¹ | MRT inf [1, 10]: 360 min | half-life [1, 10]: 507 min | Cmax ([1]; Swiss-Webster, ip, plasma, 10 mg kg^-1 i.p., mice, read-out: C max,p): 4020 ng/mL | concentration at 0.5 h ([1]; Swiss-Webster, plasma, intraperitoneal, 0.5 h, read-out: Conc (plasma, NCA input)): 4020 ng/mL | concentration at 1 h ([1]; Swiss-Webster, plasma, intraperitoneal, 1 h, read-out: Conc (plasma, NCA input)): 1790 ng/mL | concentration at 2 h ([1]; Swiss-Webster, plasma, intraperitoneal, 2 h, read-out: Conc (plasma, NCA input)): 339 ng/mL | concentration at 4 h ([1]; Swiss-Webster, plasma, intraperitoneal, 4 h, read-out: Conc (plasma, NCA input)): 148 ng/mL | concentration at 24 h ([1]; Swiss-Webster, plasma, intraperitoneal, 24 h, read-out: Conc (plasma, NCA input)): 42 ng/mL | concentration at 0.5 h ([1]; Swiss-Webster, plasma, ip, 0.5 h, 10 mg/kg i.p., read-out: mean (plasma)): 4020 ng/mL | concentration at 1 h ([1]; Swiss-Webster, plasma, ip, 1 h, 10 mg/kg i.p., read-out: mean (plasma)): 1790 ng/mL | concentration at 2 h ([1]; Swiss-Webster, plasma, ip, 2 h, 10 mg/kg i.p., individual mice, read-out: [drug],plasma (free base equivalent)): 366 ng/mL | concentration at 2 h ([1]; Swiss-Webster, plasma, ip, 2 h, 10 mg/kg i.p., read-out: mean (plasma)): 339 ng/mL | concentration at 4 h ([1]; Swiss-Webster, plasma, ip, 4 h, 10 mg/kg i.p., individual mice, read-out: [drug],plasma (free base equivalent)): 116 ng/mL | concentration at 4 h ([1]; Swiss-Webster, plasma, ip, 4 h, 10 mg/kg i.p., read-out: mean (plasma)): 148 ng/mL | concentration at 24 h ([1]; Swiss-Webster, plasma, ip, 24 h, 10 mg/kg i.p., <MRC substituted by MRC/2, read-out: mean (plasma)): 42 ng/mL | AUC(0-inf) ([1]; Swiss-Webster, plasma, ip, plasma NCA, 10 mg/kg i.p., read-out: AUC 0-inf_obs): 6420 ng·h/mL | CL/F ([1]; Swiss-Webster, plasma, ip, plasma NCA, 10 mg/kg i.p., read-out: Cl/F_obs (converted)): 26 mL/min/kg | Vd/F ([1]; Swiss-Webster, plasma, ip, plasma NCA, 10 mg/kg i.p., read-out: Vz/F_obs): 19 L/kg | AUC(0-inf) ([1]; Swiss-Webster, plasma, ip, plasma, 10 mg kg^-1 i.p., non-compartmental analysis, read-out: AUC 0–∞,p): 6420 ng·h/mL | CL/F ([1]; Swiss-Webster, plasma, ip, plasma, 10 mg kg^-1 i.p., non-compartmental analysis, read-out: CL/F (converted)): 28.3 mL/min/kg | Vd/F ([1]; Swiss-Webster, plasma, ip, plasma, 10 mg kg^-1 i.p., non-compartmental analysis, read-out: V z /F): 19 L/kg | AUMC 0-inf_obs ([1]; plasma NCA, 10 mg/kg i.p.): 38503.5 ng/ml*h^2 | Tlag ([1]; plasma NCA, 10 mg/kg i.p.): 0 h | C max,brain,u ([1]; unbound brain, 10 mg kg^-1 i.p., in vivo brain binding assumed at least 3-fold greater than homogenate): < 26 nM | Decline of mean brain level from peak [1, 11]: 31% | Decline of mean plasma concentration from peak [1, 11]: 56% | Decline of mean plasma concentration from peak ([1]; within 2 hours, 10 mg kg^-1 i.p.): 92% | Decline of brain levels [1, 12]: at least 75% | Decline of mean plasma concentration from peak [1, 12]: at least 80% | fraction unbound at 5 h, 5 μM [2]: 0.51 | Papp A→B at 120 min, 5 μM ([3]; apical to basolateral): 0.2 ×10⁻⁶ cm/s | Papp B→A at 120 min, 5 μM ([3]; basolateral to apical): 0.3 ×10⁻⁶ cm/s | Active transport / P-gp-mediated efflux [4]: did not; also recorded: No active transport | Behavioral effects observed [5]: Only mild behavioral effects, such as hiccup-like spasms and shivering | Fatalities [5]: no fatalities
